In data set [1] the test system is HepG2 cells. Kind of data set: HepG2 cytotoxicity assay. The settings on record: for Selectivity: EC50 HepG2 divided by EC50 T. b. brucei parasite killing; for EC50: Homo sapiens, HepG2, 72 h, CellTitreGlo. In kind it is cell-based, human. The protocol: (§1) A HepG2 cytotoxicity assay was used to determine a cellular selectivity index. HepG2 cells were seeded into 96-well plates in EMEM medium. Compounds were assessed for their effect upon cellular viability (Supplementary Methods 5.1). Inhibition of CYP450 was determined using kits from BD Biosciences (Supplementary Methods 5.2). Metabolic stability was determined using mouse […] tested at a single concentration of 5 µM. Plasma protein binding was determined using mouse and human plasma at a single concentration of 10 µM (Supplementary Methods 5.4). All PK studies in mice were carried out by Pharmidex (Supplementary Methods 6.1).
To determine a cellular selectivity index, a HepG2 Cytotoxicity Assay was used. HepG2 cells (a human hepatocyte carcinoma cell line) were seeded into 96 well plates in EMEM media. Compounds were assessed for their effect upon cellular viability (6 point dose response curves). After 72h the numbers of viable cells were detected using Promega CellTitreGlo reagent to measure ATP using the luciferase/luciferin detection system. The selectivity index is calculated as the EC50 in the HepG2 assay divided by the EC50 determined in the T. b. brucei parasite killing assay.

Data set [2] has as its target T1, CYP2C9 (Homo sapiens, UniProt P11712).
T1 construct: purchased BD Biosciences
Kind of data set: Inhibition of CYP450 2C9. It is filed as in vitro ADME. To be noted: CYP450 isoform inhibition kit (BD Biosciences), probe MFC. As for the experimental part:
as §1
The compounds were investigated for their inhibitory effect on cytochrome P450 (CYP450) activity using five CYP450 isoforms (with fluorescent substrates in brackets): 3A4 (two substrates, BFC and DBF), 2D6 (AMMC), 2C9 (MFC), 2C19 (CEC) and 1A2 (CEC). Kits from BD Biosciences were used along with the method described by the manufacturer. […] Fluorescence was measured using a SpectraMax M5 plate reader.

A short description of data set [3]: Plasma protein binding, human plasma. In kind it is in vitro ADME. The settings on record: equilibrium dialysis, read-out: Human plasma protein binding fu(%). The protocol: as §1
Compounds were tested for protein binding using mouse and human plasma at a single concentration of 10 µM and measured by equilibrium dialysis between plasma and buffer. The amount of parent was determined on both sides of the membrane after incubating for 4 hours at 37 °C. The samples were crashed with acetonitrile and put through protein precipitation plates. The eluent was analysed by LC/MS or LC/MS/MS. Output was percentage bound.

Data set [4] can be described thus: Mouse brain tissue binding. In kind it is in vitro ADME. The settings on record: read-out: Mouse brain tissue binding fu (%).

Here are results for 3 molecules from publication PMC7887271, “Fast acting allosteric phosphofructokinase inhibitors block trypanosome glycolysis and cure acute African trypanosomiasis in mice” (Nature Communications, 2021).

T1 sequence (P11712 whole entry): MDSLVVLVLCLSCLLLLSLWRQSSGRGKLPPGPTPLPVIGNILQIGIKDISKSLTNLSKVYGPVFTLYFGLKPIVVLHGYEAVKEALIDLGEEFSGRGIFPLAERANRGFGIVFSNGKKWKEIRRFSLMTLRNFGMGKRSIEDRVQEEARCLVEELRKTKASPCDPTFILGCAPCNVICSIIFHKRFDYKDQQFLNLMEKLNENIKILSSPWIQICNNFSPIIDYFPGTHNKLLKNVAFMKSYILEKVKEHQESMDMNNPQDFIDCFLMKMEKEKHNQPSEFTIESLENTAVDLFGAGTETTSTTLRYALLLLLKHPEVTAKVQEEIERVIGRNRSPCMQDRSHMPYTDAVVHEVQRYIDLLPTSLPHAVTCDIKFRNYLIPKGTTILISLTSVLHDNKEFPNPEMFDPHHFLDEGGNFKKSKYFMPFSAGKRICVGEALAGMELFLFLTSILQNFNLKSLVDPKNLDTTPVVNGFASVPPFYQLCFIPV

Consider `CN(C)CCn1ccc2c(ccn2Cc2ccc(Cl)c(Cl)c2)c1=O` [CTCB-405, 1-[(3,4-Dichlorophenyl)methyl]-5-[2-(dimethylamino)ethyl] pyrrolo[3,2-c]pyridin-4-one], for which, in data set [1], the Selectivity is 56 and a half-maximal response (EC50) required 20.8 µM. The molecule also returned an inhibition at 10 µM in data set [2] of 11%. Further, the fraction unbound at 4 h, 10 µM in data set [3] is 0.063. Besides, the fraction unbound in data set [4] was 0.008.
As for `CN(C)CCn1ccc2c(ccn2Cc2ccc(Cl)c(Br)c2)c1=O` [CTCB-470, 1-[(3-Bromo-4-chlorophenyl)methyl]-5-[2-(dimethylamino)ethyl] pyrrolo[3,2-c]pyridin-4-one], in data set [1], the Selectivity was determined as 39 and the EC50 was found to be 12.3 µM. Besides, at 10 µM the inhibition in data set [2] was 28.5%. In addition, in data set [3], the fraction unbound at 4 h, 10 µM is 0.032. Besides, in data set [4], the fraction unbound amounted to 0.006.
In the case of `CN(C)CCn1ccc2c(ccn2Cc2ccc(F)c(Br)c2)c1=O` [CTCB-508, 1-[(3-Bromo-4-fluorophenyl)methyl]-5-[2-(dimethylamino)ethyl] pyrrolo[3,2-c]pyridin-4-one], in data set [1], the Selectivity is 111 and the EC50 stood at 33.4 µM. This molecule also had an inhibition at 10 µM in data set [2] of 6.1%. The fraction unbound at 4 h, 10 µM in data set [3] is 0.21. In data set [4], the fraction unbound was determined as 0.017.
